We go through 5 molecules from paper PMC6212638, “In silico identification and biochemical characterization of the human dicarboxylate clamp TPR protein interaction network” (FEBS Open Bio, 2018).

T1: FKBP51 (Homo sapiens, UniProt Q13451)
T1 sequence (Q13451 1-457): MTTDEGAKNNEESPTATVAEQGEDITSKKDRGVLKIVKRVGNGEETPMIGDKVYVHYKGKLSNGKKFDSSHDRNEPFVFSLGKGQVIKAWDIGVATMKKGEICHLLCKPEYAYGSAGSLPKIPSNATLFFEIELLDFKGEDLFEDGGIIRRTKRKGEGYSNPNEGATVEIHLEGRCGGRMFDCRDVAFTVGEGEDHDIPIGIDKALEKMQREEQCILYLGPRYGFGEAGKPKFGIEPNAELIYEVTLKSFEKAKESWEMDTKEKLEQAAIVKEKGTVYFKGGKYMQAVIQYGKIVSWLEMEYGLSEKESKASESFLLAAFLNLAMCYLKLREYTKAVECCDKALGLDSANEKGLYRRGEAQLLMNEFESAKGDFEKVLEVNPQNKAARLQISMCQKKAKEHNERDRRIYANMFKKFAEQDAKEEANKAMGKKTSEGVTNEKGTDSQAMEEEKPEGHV

T2: NADSYN1 (human, UniProt Q6IA69 1-706)
T2 construct: prey of the pull-down; also called Nicotinamide adenine dinucleotide synthase 1; source: E. coli BL21, purified as GST fusion (GSTrap), GST removed with PreScission protease
T2 sequence (looked up): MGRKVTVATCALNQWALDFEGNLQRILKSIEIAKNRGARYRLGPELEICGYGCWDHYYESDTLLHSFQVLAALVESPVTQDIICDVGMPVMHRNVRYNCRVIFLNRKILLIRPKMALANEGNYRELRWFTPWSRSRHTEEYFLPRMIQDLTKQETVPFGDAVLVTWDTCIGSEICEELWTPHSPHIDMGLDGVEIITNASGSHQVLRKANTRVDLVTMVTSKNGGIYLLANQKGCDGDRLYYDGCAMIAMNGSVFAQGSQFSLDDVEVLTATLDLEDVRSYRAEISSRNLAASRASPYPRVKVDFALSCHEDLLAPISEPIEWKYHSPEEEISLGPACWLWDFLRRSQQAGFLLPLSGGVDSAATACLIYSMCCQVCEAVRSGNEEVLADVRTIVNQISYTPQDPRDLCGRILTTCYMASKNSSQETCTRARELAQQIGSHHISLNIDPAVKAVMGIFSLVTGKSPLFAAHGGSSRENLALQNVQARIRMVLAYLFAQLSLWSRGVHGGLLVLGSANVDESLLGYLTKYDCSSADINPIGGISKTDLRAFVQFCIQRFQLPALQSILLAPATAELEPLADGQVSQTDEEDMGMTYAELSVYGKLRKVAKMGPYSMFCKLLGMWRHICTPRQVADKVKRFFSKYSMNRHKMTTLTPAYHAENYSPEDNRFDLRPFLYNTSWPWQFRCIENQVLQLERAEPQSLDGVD

T3: DNAAF2 (human, UniProt Q9NVR5 1-837)
T3 construct: prey of the pull-down; also called dynein axonemal assembly factor 2; source: E. coli BL21, purified as GST fusion (GSTrap), GST removed with PreScission protease
T3 sequence (looked up): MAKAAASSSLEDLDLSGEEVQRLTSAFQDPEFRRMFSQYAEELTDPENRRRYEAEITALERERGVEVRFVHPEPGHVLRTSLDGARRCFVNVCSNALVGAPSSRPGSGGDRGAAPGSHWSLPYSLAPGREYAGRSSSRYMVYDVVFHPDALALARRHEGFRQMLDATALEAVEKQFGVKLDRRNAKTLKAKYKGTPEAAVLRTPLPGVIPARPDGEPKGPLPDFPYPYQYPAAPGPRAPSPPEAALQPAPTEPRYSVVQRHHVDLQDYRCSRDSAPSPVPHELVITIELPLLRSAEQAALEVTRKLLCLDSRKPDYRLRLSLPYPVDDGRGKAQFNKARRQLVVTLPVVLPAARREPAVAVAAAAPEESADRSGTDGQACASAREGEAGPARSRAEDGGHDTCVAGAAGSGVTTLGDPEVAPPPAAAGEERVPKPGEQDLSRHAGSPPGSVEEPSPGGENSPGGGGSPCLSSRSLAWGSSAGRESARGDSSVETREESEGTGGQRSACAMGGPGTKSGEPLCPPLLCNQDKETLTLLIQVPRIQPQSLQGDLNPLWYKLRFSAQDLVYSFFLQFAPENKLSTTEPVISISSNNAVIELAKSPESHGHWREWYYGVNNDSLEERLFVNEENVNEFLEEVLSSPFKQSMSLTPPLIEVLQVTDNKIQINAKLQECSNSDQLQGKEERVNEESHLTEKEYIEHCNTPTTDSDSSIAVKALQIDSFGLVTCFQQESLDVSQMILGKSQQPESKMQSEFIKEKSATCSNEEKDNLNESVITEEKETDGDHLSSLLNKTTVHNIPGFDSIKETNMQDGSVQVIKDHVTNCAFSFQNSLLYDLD

B1: Bcl-G (natural protein, human, UniProt Q9BZR8 1-327, looked up)
chain: MCSTSGCDLEEIPLDDDDLNTIEFKILAYYTRHHVFKSTPALFSPKLLRTRSLSQRGLGNCSANESWTEVSWPCRNSQSSEKAINLGKKKSSWKAFFGVVEKEDSQSTPAKVSAQGQRTLEYQDSHSQQWSRCLSNVEQCLEHEAVDPKVISIANRVAEIVYSWPPPQATQAGGFKSKEIFVTEGLSFQLQGHVPVASSSKKDEEEQILAKIVELLKYSGDQLERKLKKDKALMGHFQDGLSYSVFKTITDQVLMGVDPRGESEVKAQGFKAALVIDVTAKLTAIDNHPMNRVLGFGTKYLKENFSPWIQQHGGWEKILGISHEEVD
notes: Bcl-2-like protein 14 (Bcl-G), human, full-length cDNA clone; also called Bcl-2-like protein 14; source: E. coli BL21, purified as GST fusion (GSTrap), GST removed with PreScission protease
B2: GST–FKBP51 (natural protein, human, UniProt Q13451 1-457, looked up)
chain: T1 sequence (Q13451 1-457)
notes: bait of the GST pull-down; source: E. coli BL21, purified (GSTrap 4B, PD-10)
B3: GST–AIP (natural protein, human, UniProt O00170 1-330, looked up)
chain: MADIIARLREDGIQKRVIQEGRGELPDFQDGTKATFHYRTLHSDDEGTVLDDSRARGKPMELIIGKKFKLPVWETIVCTMREGEIAQFLCDIKHVVLYPLVAKSLRNIAVGKDPLEGQRHCCGVAQMREHSSLGHADLDALQQNPQPLIFHMEMLKVESPGTYQQDPWAMTDEEKAKAVPLIHQEGNRLYREGHVKEAAAKYYDAIACLKNLQMKEQPGSPEWIQLDQQITPLLLNYCQCKLVVEEYYEVLDHCSSILNKYDDNVKAYFKRGKAHAAVWNAQEAQADFAKVLELDPALAPVVSRELRALEARIRQKDEEDKARFRGIFSH
notes: as for B2

For series [1], the system named is Hsp90–Tom70 interaction. The series can be described thus: Proximity ligation assay (PLA) of Hsp90–Tom70 interaction in HEK293 cells. Format: cell-based, human. The conditions noted are these: non-fluorescent peptide, n = 3. An excerpt: (§1) P < 0.05 was considered to be statistically significant. Data are presented as mean ± SEM.
(§2) In subsequent experiments, non‐fluorescent peptides were used. […] Cell impermeable Hsp90 peptide served as a treatment control.

The subject of series [2] is Hsp90–Tom70 interaction. The series can be described thus: Mammalian two-hybrid assay (luciferase) of Hsp90–Tom70 interaction in HEK293 cells. Type of series: cell-based, human. The conditions noted are these: peptide 20 μM added 4 h after transfection, 48 h, n = 3.
Source text: (§3) Tom70 sequence was PCR amplified and subcloned into pACT vector of CheckMate™ mammalian two‐hybrid system (Promega, Madison, WI, USA) using SalI/NotI restriction sites, and Hsp90 and Tom20 DNA sequences were PCR amplified and subcloned into pBIND vector using SalI/NotI restriction sites. Tom70‐pACT/Hsp90‐pBIND and Tom70‐pACT/Tom20‐pBIND were co‐transfected with pLuc plasmid in a 1 : 1 : 1 molar ratio into HEK293 cells using Lipofectamine 3000 transfection reagent (Invitrogen, Carlsbad, CA, USA) according to the manufacturer's protocol. Triplicate samples in 96‐well cell culture plates Corning (Tewskbury, MA, USA) were used in each experiment. Hsp90, R9–Hsp90, Tom20 and R9–Tom20 peptides at concentration 20 μM were added 4 h after transfection. HEK293 cells were cultivated for 48 h, washed twice with PBS and lysed with PBS containing 1% Triton X‐100. Luciferase expression was detected using a luciferase assay kit from BioThema (Huddinge, Sweden) on a 96‐well plate reader from Perkin Elmer (Upplands Väsby, Stockholm, Sweden).
as §2

The test system of a further series is Tom20–Tom70 interaction. The experiment in a line: Mammalian two-hybrid assay (luciferase) of Tom20–Tom70 interaction in HEK293 cells. Format: cell-based, human. The conditions noted are these: peptide 20 μM added 4 h after transfection, 48 h, n = 3.
Source text: as §3, §2

For the next series, the system named is HEK293 cells. Particulars: N-terminally fluorescein-labeled peptides, 20 μM, fluorescence imaging.
Source text: as §1

The target of series [3] is T1, FKBP51. The experiment in a line: Dot-blot competition assay: HRP-conjugated peptide vs unlabeled peptide on immobilized FKBP51. The conditions noted are these: HRP-conjugated peptide on immobilized dcTPR proteins.
Protocol: Full‐length cDNA clones for respective proteins were obtained from IMAGE consortium (SourceBioScience, Nottingham, UK) and PCR amplified with forward and reverse primers (Table 1) containing overhangs with appropriate restriction sites and cloned into pGEX6 vectors (GE Healthcare, Uppsala, Sweden). Inserts were sequence verified, and the plasmids were transformed into BL21 Escherichia coli strain. Glutathione‐S‐transferase (GST) fusion proteins were purified from 1 L overnight culture after 2 h of induction with 1 mM IPTG. Cells were pelleted, resuspended in 1× PBS and sonicated 3 × 20 s on ice. EDTA and protease inhibitor cocktail were added to prevent proteolysis. The suspension was centrifuged for 30 min at 50 000 g to remove cell debris, and supernatant was loaded onto a 1 mL GSTrap™ 4B column (GE Healthcare). After column washing with 30 mL PBS, GST fusion proteins were eluted with 2.5 mL 10 mM glutathione in PBS. Eluate was passed through a PD‐10 column (GE Healthcare) to remove free glutathione. To prepare GST‐tag‐free proteins, we performed overnight cleavage at 4 °C with PreScission protease (GE Healthcare) followed by passage through a GSTrap column to remove free GST protein. Average yield from 1 L starting culture was 1–5 mg of purified proteins. Protein‐containing fractions were collected, checked with SDS/PAGE and kept at −20 °C.
Peptides were dissolved in HEPES‐KOH buffer pH 7.2 at concentration of 1 mg·mL^−1 and incubated with equimolar amounts of activated horseradish peroxidase (HRP) (Lightning‐link® HRP labeling kit cat. 701‐004, from Innova Biosciences) for 5 min. Reaction was quenched with 0.1 M Tris/HCl, pH 7.5 for 10 min and the products were passed through PD‐10 columns (GE Healthcare). Dot‐blot experiments were performed using GST‐tag‐free proteins applied to the nitrocellulose membrane. After blocking of membrane with 3% BSA in TBS‐T buffer for 1 h and subsequent wash with TBS‐T, HRP‐conjugated peptides (1 × 500 times dilution) were applied and incubated for 1 h. After subsequent washing (3 × 10 min, TBS‐T), membrane was dried and signals were quantified using a digital Fujifilm LAS3000 imager and LAS3000 software. In competition experiments, increasing concentrations of unlabeled peptides were co‐incubated with peptide–HRP conjugates.
Each peptide was separately coupled to HRP.
Series [4] concerns FKBP51. The conditions noted are these: cited from earlier work. From the text: Here in this study, we systematically searched the human protein database (https://www.ncbi.nlm.nih.gov/protein/) for the protein products containing Hsp70/Hsp90‐like sequence signatures at their C terminus. Sev ...
The series “GST–FKBP51” concerns the target B2. The series can be described thus: pull-down; GST–AIP and GST–FKBP51 as bait, purified full-length and truncated proteins as prey; bound proteins probed by western blot with their antibodies. Particulars: both partners purified. In general terms: In western blotting, separated proteins are transferred to a membrane and probed.
The series “GST–AIP” has as its target B3. The series is described as above. The conditions noted are these: both partners purified.
The next series addresses T2, NADSYN1. The description is as above. Particulars: both partners purified.
In the next series the target is T3, DNAAF2. The description is as above. Particulars: both partners purified.

Peptide text beside a SMILES is read from it.

Regarding `CC(C)C[C@H](NC(=O)[C@H](CO)NC(=O)[C@H](CCC(N)=O)NC(=O)[C@H](C)NC(=O)[C@H](CCCNC(=N)N)NC(=O)[C@H](CCCNC(=N)N)NC(=O)[C@H](CCCNC(=N)N)NC(=O)[C@H](CCCNC(=N)N)NC(=O)[C@H](CCCNC(=N)N)NC(=O)[C@H](CCCNC(=N)N)NC(=O)[C@H](CCCNC(=N)N)NC(=O)[C@H](CCCNC(=N)N)NC(=O)[C@@H](N)CCCNC(=N)N)C(=O)N[C@@H](C)C(=O)N[C@@H](CCC(=O)O)C(=O)N[C@@H](CC(=O)O)C(=O)N[C@@H](CC(=O)O)C(=O)N[C@H](C(=O)N[C@@H](CCC(=O)O)C(=O)O)C(C)C` [R9–Tom20] (H-RRRRRRRRRAQSLAEDDVE-OH), the “decrease of Hsp90–Tom70 interaction signal (PLA)” value in the series on Hsp90–Tom70 interaction [1] was “failed to inhibit”. Moreover, the “inhibition of Hsp90–Tom70 interaction (mammalian two-hybrid, luciferase)” value in the series with Hsp90–Tom70 interaction [2] is “inhibited only by addition of R9–Hsp90 peptide”. For the same molecule, the “inhibition of Tom20–Tom70 interaction (mammalian two-hybrid, luciferase)” value in the series with Tom20–Tom70 interaction was “sensitive”. Besides, the “fluorescein staining of HEK293 cells (peptide translocation into the cells)” value in the series with HEK293 cells was “resulted in HEK293 cells staining”.
Turning to “H-DDDDDDDDDD-OH [poly‐D, reference compound]”, the “signal of HRP-conjugated peptide in dot-blot binding assay” value at FKBP51 [3] is listed as “did not produce any signal”. Further, the “interaction with FKBP51” value in the series on FKBP51 [4] is “no interaction was observed”.
With B1, the binding result with GST–FKBP51 and in the series with GST–AIP was “binds” in each case.
On to B2, for which the binding result in the series with NADSYN1 and with DNAAF2 was “binds” in each case.
On to B3, for which the binding result with NADSYN1 and with DNAAF2 was “binds” in each case.
